# Laboratory results reported in US8178506B2, “Oligomeric compounds and compositions for use in modulation of small non-coding RNAs” (Regulus Therapeutics Inc., priority 2003, dated 2012).
# In the oligonucleotide strings, read from the 5' end, every base follows the letter of its sugar. An asterisk marks phosphorothioate; unmarked linkages are phosphodiester. Other units and linkages are bracketed, terminal groups are in braces. A string of capitals states the bases alone. e = 2'-O-(2-methoxyethyl) (MOE); [5mC] = 5-methylcytosine
# Assays:
# adipocytes = assay: Triglyceride accumulation assay in adipocytes; type: cell-based, human
# HuVECs = assay: Endothelial tube formation assay in HuVECs; conditions: 75 nM oligomeric compound, Table 57
# PPARγ = PPARγ mRNA expression in adipocytes (real-time PCR); type: cell-based, human; conditions: for PPAR gamma mRNA: differentiating adipocytes transfected with oligomeric compound; for PPAR gamma (mRNA expression): adipocytes, 250 nM oligomeric compound, day nine post-transfection, relative to control (1.0)
# HSL = HSL mRNA expression in adipocytes (real-time PCR); type: cell-based, human; conditions: for HSL mRNA: differentiating adipocytes transfected with oligomeric compound; for HSL (mRNA expression): adipocytes, 250 nM oligomeric compound, day nine post-transfection, relative to control (1.0)
# Glut4 = Glut4 mRNA expression in adipocytes (real-time PCR); type: cell-based, human; conditions: for GLUT4 mRNA: differentiating adipocytes transfected with oligomeric compound; for Glut4 (mRNA expression): adipocytes, 250 nM oligomeric compound, day nine post-transfection, relative to control (1.0)
# aP2 = aP2 mRNA expression in adipocytes (real-time PCR); type: cell-based, human; conditions: for AP2 (mRNA expression): adipocytes, 250 nM oligomeric compound, day nine post-transfection, relative to control (1.0); for aP2 mRNA: Table 75
# [1] = differentiating adipocytes transfected with oligomeric compound
# [2] = adipocytes, 250 nM oligomeric compound, relative to control (1.0), Table 15
# [3] = differentiating adipocytes transfected with oligomeric compound, Table 75
Substance,% Activity Relative to UTC (tube formation) (HuVECs) [%],TG (triglyceride accumulation) (adipocytes; [3]),PPAR gamma mRNA (PPARγ; Table 75),HSL mRNA (HSL; Table 75),GLUT4 mRNA (Glut4; Table 75),aP2 mRNA (aP2; [1]),further results
327904 (antisense eA*e[5mC]*eT*e[5mC]*eA*e[5mC]*e[5mC]*eG*eA*e[5mC]*eA*eG*e[5mC]*eG*eT*eT*eG*eA*eA*eT*eG*eT*eT) [compound 327904],89.7,–,–,–,–,–,TG (triglyceride accumulation) (adipocytes; [1]): 56 percentage of untreated control (UTC); PPAR gamma mRNA (PPARγ): 54 percentage of untreated control (UTC); HSL mRNA (HSL): 42 percentage of untreated control (UTC); GLUT4 mRNA (Glut4): 40 percentage of untreated control (UTC); AP2 mRNA (aP2; [1]): 65 percentage of untreated control (UTC)
327905 (antisense e[5mC]*eA*eG*eA*e[5mC]*eT*e[5mC]*e[5mC]*eG*eG*eT*eG*eG*eA*eA*eT*eG*eA*eA*eG*eG*eA) [compound 327905],48.3,–,–,–,–,–,"TG (triglyceride accumulation) (adipocytes; [2]): 0.69; TG (triglyceride accumulation) (adipocytes; adipocytes, 250 nM oligomeric compound, relative to control (1.0), Table 16): 0.58; PPAR gamma (mRNA expression) (PPARγ; Table 15): 0.54; PPAR gamma (mRNA expression) (PPARγ; Table 16): 0.83; HSL (mRNA expression) (HSL; Table 15): 1.11; HSL (mRNA expression) (HSL; Table 16): 0.69; Glut4 (mRNA expression) (Glut4; Table 15): 0.84; Glut4 (mRNA expression) (Glut4; Table 16): 0.40; AP2 (mRNA expression) (aP2; Table 15): 1.14; AP2 (mRNA expression) (aP2; Table 16): 0.68"
327906 (antisense eT*e[5mC]*eA*eT*eA*eG*e[5mC]*e[5mC]*e[5mC]*eT*eG*eT*eA*e[5mC]*eA*eA*eT*eG*e[5mC]*eT*eG*e[5mC]*eT) [compound 327906],69.0,25 percentage of untreated control (UTC),50 percentage of untreated control (UTC),37 percentage of untreated control (UTC),14 percentage of untreated control (UTC),46 percentage of untreated control (UTC),–
327907 (antisense eA*eG*e[5mC]*e[5mC]*eT*eA*eT*e[5mC]*e[5mC]*eT*eG*eG*eA*eT*eT*eA*e[5mC]*eT*eT*eG*eA*eA) [compound 327907],62.1,19 percentage of untreated control (UTC),49 percentage of untreated control (UTC),21 percentage of untreated control (UTC),6 percentage of untreated control (UTC),29 percentage of untreated control (UTC),–
327910 (antisense eT*eG*eA*eT*eA*eG*e[5mC]*e[5mC]*e[5mC]*eT*eG*eT*eA*e[5mC]*eA*eA*eT*eG*e[5mC]*eT*eG*e[5mC]*eT) [compound 327910],55.2,24 percentage of untreated control (UTC),39 percentage of untreated control (UTC),32 percentage of untreated control (UTC),16 percentage of untreated control (UTC),35 percentage of untreated control (UTC),–
327911 (antisense eG*e[5mC]*eT*eA*e[5mC]*e[5mC]*eT*eG*e[5mC]*eA*e[5mC]*eT*eG*eT*eA*eA*eG*e[5mC]*eA*e[5mC]*eT*eT*eT*eT) [compound 327911],75.9,59 percentage of untreated control (UTC),75 percentage of untreated control (UTC),71 percentage of untreated control (UTC),48 percentage of untreated control (UTC),76 percentage of untreated control (UTC),–
327913 (antisense eA*eA*e[5mC]*e[5mC]*eG*eA*eT*eT*eT*e[5mC]*eA*eA*eA*eT*eG*eG*eT*eG*e[5mC]*eT*eA*eG) [compound 327913],69.0,–,–,–,–,–,TG (triglyceride accumulation) (adipocytes; [2]): 0.59; PPAR gamma (mRNA expression) (PPARγ; Table 15): 0.72; HSL (mRNA expression) (HSL; Table 15): 0.92; Glut4 (mRNA expression) (Glut4; Table 15): 0.84; AP2 (mRNA expression) (aP2; Table 15): 0.99
327916 (antisense eT*eG*eG*e[5mC]*eA*eT*eT*e[5mC]*eA*e[5mC]*e[5mC]*eG*e[5mC]*eG*eT*eG*e[5mC]*e[5mC]*eT*eT*eA*eA) [compound 327916],96.6,56 percentage of untreated control (UTC),71 percentage of untreated control (UTC),64 percentage of untreated control (UTC),51 percentage of untreated control (UTC),67 percentage of untreated control (UTC),–
